Test results reported in patent publication US20260083826A1, “NEW SYNTHETIC DRUGS FOR TREATING ALZHEIMER'S DISEASE” (OKINAWA INSTITUTE OF SCIENCE AND TECHNOLOGY SCHOOL …, priority 2022, published 2026).
“Also recorded” adds a separate entry of the source.

What was measured:
[1] = system: calyx of Held presynaptic terminals; test: Membrane capacitance measurements (SV exo-endocytosis) at calyx of Held presynaptic terminals; assay type: cell-based, mouse; details: for Effect on h-tau-induced endocytic slowing: 0.25 mM co-loaded with WT h-tau 20 μM; for Presynaptic Ca2+ current charge (QCa) / Exocytic capacitance magnitude / Endocytic rate (endocytic capacitance change): 20 μM; for Presynaptic Ca2+ current charge (QCa): 20-30 min after patch membrane rupture; for Exocytic capacitance magnitude: vs controls
[2] = system: calyx of Held presynaptic terminals; test: Simultaneous pre- and postsynaptic whole-cell recording of EPSCs at the calyx of Held in brainstem slices; assay type: cell-based, mouse; details: for Prevention of WT h-tau-induced EPSC rundown: 20 μM co-loaded with WT h-tau 20 μM; for EPSC amplitude at 30 min (normalized to baseline): 1 μM intra-terminal; for Effect on h-tau-induced EPSC rundown: 1 mM co-loaded with h-tau 20 μM, 30 min after infusion; for EPSC amplitude 30 min after infusion (normalized to baseline) / EPSC amplitude remaining 30 min after infusion (normalized to baseline): 20 μM loaded in presynaptic terminal
[3] = biological target: porcine tubulin (Sus scrofa, UniProt P02550+P02554); test: Tubulin polymerization assay (MT assembly); assay type: biochemical
Chain of porcine tubulin (P02550 whole entry): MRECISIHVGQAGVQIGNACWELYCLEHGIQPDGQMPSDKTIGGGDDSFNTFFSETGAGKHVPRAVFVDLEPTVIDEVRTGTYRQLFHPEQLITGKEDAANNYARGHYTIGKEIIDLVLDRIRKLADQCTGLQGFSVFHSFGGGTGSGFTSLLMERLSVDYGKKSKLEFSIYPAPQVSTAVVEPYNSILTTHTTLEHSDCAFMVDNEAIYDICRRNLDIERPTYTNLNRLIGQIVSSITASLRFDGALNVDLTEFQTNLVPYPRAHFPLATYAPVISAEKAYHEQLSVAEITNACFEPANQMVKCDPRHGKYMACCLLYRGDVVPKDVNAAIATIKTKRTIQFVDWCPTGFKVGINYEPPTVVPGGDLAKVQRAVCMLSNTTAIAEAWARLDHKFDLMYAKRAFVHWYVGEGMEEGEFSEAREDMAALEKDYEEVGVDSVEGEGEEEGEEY
Chain of porcine tubulin (P02554 whole entry): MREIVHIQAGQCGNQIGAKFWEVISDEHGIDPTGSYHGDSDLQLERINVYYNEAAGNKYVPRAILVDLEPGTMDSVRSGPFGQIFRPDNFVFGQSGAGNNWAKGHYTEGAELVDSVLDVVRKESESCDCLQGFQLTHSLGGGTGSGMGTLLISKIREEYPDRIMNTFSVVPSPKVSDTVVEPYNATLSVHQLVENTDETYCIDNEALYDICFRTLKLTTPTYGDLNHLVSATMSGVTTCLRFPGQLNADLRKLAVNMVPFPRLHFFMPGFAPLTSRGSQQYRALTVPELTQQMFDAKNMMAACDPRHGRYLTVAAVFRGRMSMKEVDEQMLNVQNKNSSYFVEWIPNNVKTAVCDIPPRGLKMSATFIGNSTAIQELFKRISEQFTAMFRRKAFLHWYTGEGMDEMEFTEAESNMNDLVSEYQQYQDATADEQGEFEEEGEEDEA

[4] = biological target: T1, MT-dynamin 1 binding (Sus scrofa, UniProt P02550+P02554); test: MT-dynamin binding assay (microtubule spin-down, SDS-PAGE, SYPRO Orange); parameters: species or system human
T1 construct: His
T1 sequence (P02550 whole entry): as the sequence (P02550 whole entry) above
T1 sequence (P02554 whole entry): as the sequence (P02554 whole entry) above
Method: Microtubule binding assay was performed using Microtubule Binding Protein Spin Down Assay Kit (cat #BK029, Cytoskeleton Inc., Denver, CO, USA). Briefly, 20 μl of 5 mg/ml tubulin in general tubulin buffer (GTB; 80 mM PIPES pH7.0, 2 mM MgCl2, 0.5 mM EGTA) supplemented with 1 mM GTP were polymerized by adding 2 μl of cushion buffer (80 mM PIPES pH7.0, 1 mM MgCl2, 1 mM EGTA, 60% glycerol), and incubated at 35° C. for 20 min. Microtubules were stabilized with 20 μM Taxol. Taxol-stabilized microtubules (2.5 μM) and dynamin 1 ([…]) were incubated in GTB with or without 1 mM peptide at room temperature for 30 min. After incubation, the 50 μl of mixture was loaded on top of 100 μl cushion buffer supplemented with 20 μM Taxol, and then centrifuged at 100,000×g for 40 min at room temperature. After the ultracentrifugation, 50 μl of supernatant was taken and mixed with 10 μl of 5×sample buffer. The resultant pellet was resuspended with 50 μl of 1×sample buffer. Twenty μl of each sample was analyzed by SDS-PAGE and stained with SYPRO Orange. Protein bands were visualized using FLA-3000 (FUJIFILM Co. LTD, Tokyo, Japan).
MTs were prepared from tubulin and stabilized by taxol. And then taxol stabilized MTs and Dyn1 were incubated with/without PHDP5. Using ultracentrifugation to separate supernatant (unbinding protein) and pellet (bound protein) fractions. Samples were analyzed by SDS-PAGE gel and visualized by SYPRO Orange staining. […] This may cause by competitive binding of Dyn1/PHDP5 to MTs (FIG. 6A).
We changed the incubation order that MTs were mixed with PHDP5 and then incubated with Dyn1.
For optimizing the condition of PHDP5 to block MT-dynamin binding, we have tried different PHDP5 concentration and incubation period with Dyn1. […] Without PHDP5, there is no difference between each time point (FIG. 7B). […] We prepared several FITC-labeled PHDP5 peptide candidates to improve the brain barrier permeability of PHDP5 (Table 3). The N-terminus of the construct was protected with β-alanine (BA) and labeled with FITC. Under the same condition, several FITC-labeled PHDP5 candidates and its' scrambled control were also tested.

[5] = system: dynamin1; test: Immunofluorescence quantification of bound-form dynamin in calyceal terminals; assay type: cell-based, mouse
Method: (§1) The following primary antibodies were used: anti-β3-tubulin (Synaptic System, #302304), anti-human Tau (BioLegend, #806501), anti-dynamin (Invitrogen, PA1-660). Secondary antibodies were goat IgG conjugated with Alexa Fluor 488, 568, or 647 (Thermo Fisher Scientific). Acute brainstem slices (175 μm in thickness, see below) were fixed with 4% paraformaldehyde in PBS for 30 min at 37° C. and overnight at 4° C. On the following day, slices were rinsed three times in PBS, permeabilized in PBS containing 0.5% Triton X-100 (Tx-100; Nacalai Tesque) for 30 min and blocked in PBS containing 3% bovine serum albumin (BSA; Sigma-Aldrich) and 0.05% Tx-100 for 45 min. Slices were incubated overnight at 4° C. with primary antibody diluted in PBS 0.05% Tx-100, 0.3% BSA. On the next day, slices were rinsed three times with PBS containing 0.05% Tx-100 for 10 min and incubated with corresponding secondary antibody diluted in PBS 0.05% Tx-100, 0.3% BSA for 1 h at room temperature (RT). […] For quantifying fluorescence intensity levels, the region of interest was delimited around calyceal terminals, and background fluorescence was subtracted using ImageJ software.
(§2) The monomeric GTPases dynamin 1 and 3 play critical roles in the endocytic fission of SVs (50-52). […] To test this hypothesis, we performed immunofluorescence microscopy and image analysis to quantify MTs and dynamin. […]

[6] = system: β3-tubulin; test: Immunofluorescence quantification of MTs in calyceal terminals; assay type: cell-based, mouse
Method: as §1, §2

[7] = 30 min after patch membrane rupture
[8] = 30 min after patch membrane rupture, listed as h-tau

With O=C1NC(=S)N(c2cccc(Br)c2)C(=O)/C1=C/c1ccco1 [SMFH2, reference compound] the “Effect on SV endocytosis” value ([1]; calyceal terminals in slices from post-hearing mice (P13-14)) was “slightly prolonged SV endocytosis, but this effect was statistically insignificant”.

With COC(=O)Nc1nc2ccc(C(=O)c3cccs3)cc2[nH]1 [nocodazole, reference compound] the “Effect on exo-endocytosis, loaded alone” value ([1]; 20 μM alone) was “no effect”, the “Prevention of h-tau-induced block of SV endocytosis” value ([1]; 20 μM co-loaded with h-tau 20 μM, 25 min after loading) was “fully prevented” and the “Effect on EPSC amplitude, loaded alone” value ([2]; 20 μM alone) was “no effect”. The “Prevention of WT h-tau-induced EPSC rundown” value [2] was “fully prevented”, the “Prevention of WT h-tau-induced EPSC rundown” value ([2]; listed as Nocodazole) was “prevented EPSC rundown” and the “Concentration at which maximal inhibition of h-tau-dependent MT assembly is reached” value [3] was 20 µM. The “Inhibition of h-tau-dependent MT assembly” value ([3]; nocodazole 1, 10, 20, 50 μM, ON4R h-tau (20 μM)) was “inhibited h-tau-dependent MT assembly in a concentration-dependent manner; also recorded: Concentration-dependent inhibitory effects”.

In the case of CC(=O)O[C@H]1C(=O)[C@@]2(C)[C@H]([C@H](OC(=O)c3ccccc3)[C@]3(O)C[C@H](OC(=O)[C@H](O)[C@@H](NC(=O)c4ccccc4)c4ccccc4)C(C)=C1C3(C)C)[C@]1(OC(C)=O)CO[C@@H]1C[C@@H]2O [taxol, reference compound], the “EPSC amplitude at 30 min (normalized to baseline)” value ([2]; EPSCs evoked at 0.1 Hz) is reported as 104±3.0%, the “EPSC amplitude at 30 min (normalized to baseline)” value ([2]; EPSCs evoked at 0.1 Hz, listed as Taxol) is reported as 105±3.0% and the “EPSC amplitude at 30 min (normalized to baseline)” value ([2]; EPSCs evoked at 1 Hz) is reported as 41±12%. For the same molecule, the “EPSC amplitude at 30 min (normalized to baseline)” value ([2]; EPSCs evoked at 1 Hz, listed as Taxol) was 41.4±12% and the “MT assembly in in vitro tubulin polymerization assay” value ([3]; 1 μM) was “assembles tubulins into MTs; also recorded: MT assembly”.

“PHDP5: synthetic dodecapeptide corresponding to amino acids 560-571 of dynamin 1 (PH domain); inhibits MT-dynamin interaction (EKKYMLSVDNLK)” was tested, and the “Effect on exo-endocytic capacitance changes, loaded alone” value ([1]; 0.25 mM alone) was “no effect”, the “Effect on h-tau-induced endocytic slowing” value [1] was “significantly attenuated” and the “Effect on h-tau-induced endocytic slowing” value ([1]; listed as DPHP5) was “significant difference”. The “Effect on EPSC amplitude, loaded alone” value ([2]; 1 mM alone) was “did not affect”, the “Effect on EPSC amplitude, loaded alone” value ([2]; 1 mM alone, listed as DPHP5) was “no effect” and the “Effect on h-tau-induced EPSC rundown” value [2] was “significantly attenuated”. The “Effect on h-tau-induced EPSC rundown” value ([2]; listed as DPHP5) was “attenuated”, the “Inhibition of MT-dynamin 1 interaction” value ([4]; 1 mM peptide) was “significantly inhibited; also recorded: strongly inhibits” and the “% of Dyn1 in pellet fraction” value ([4]; MTs incubated with 1 mM, shorter incubation period with Dyn1 (10 min)) was “lower”. The “% of Dyn1 in pellet fraction” value ([4]; MTs incubated with 3 mM compared with 1 mM) was “lower”, the “% of Dyn1 in pellet fraction” value ([4]; MTs incubated with 3 mM, incubation with Dyn1 for 5 min) was “lower” and the “% of Dyn1 in pellet fraction” value ([4]; MTs mixed with PHDP5 first, then incubated with Dyn1) was “decreased”. For the same molecule, the “Dynamin 1 in precipitates (ppt fraction) relative to total amount” value ([4]; peptide added to MT and dynamin 1, 22.6±2.4% with MT without peptide) was 6.3±2.4% and the “% of Dyn1 in pellet fraction” value ([4]; taxol stabilized MTs and Dyn1 incubated together with/without PHDP5) was “no difference”.

In the case of “WT h-tau: wild-type recombinant human tau of ON4R isoform expressed in E. coli”, the “Presynaptic Ca2+ current charge (QCa)” value [1] is reported as “not different from controls; also recorded: remained unchanged”, the “Presynaptic Ca2+ current charge (QCa)” value ([1]; listed as h-tau) is reported as “without a change” and the Exocytic capacitance magnitude ([1]; 20 min after patch membrane rupture) is reported as “not different from controls; also recorded: remained similar to controls”. The “Endocytic rate (endocytic capacitance change)” value ([1]; 20 min after patch membrane rupture, vs non-loading controls) was “significant slowing; also recorded: significantly prolonged”, the “Endocytic rate (endocytic capacitance change)” value [1, 7] was “further prolonged” and the Exocytic capacitance magnitude [1, 7] was “significantly less than controls”. The Exocytic capacitance magnitude [1, 8] was “significant reduction”, the “Endocytic rate (endocytic capacitance change)” value [1, 8] was “further slowed” and the “Increase in dynamin signal vs terminals without loading” value ([5]; 20 μM whole-cell infusion) was 2.6 fold. The “dynamin1 immunofluorescence intensity vs control terminals” value ([5]; WT h-tau loading) was “significantly increased”, the “Increase in MT (β3-tubulin) signals vs terminals without loading” value ([6]; 20 μM whole-cell infusion) was 2.1 fold and the “β3-tubulin immunofluorescence intensity vs control terminals” value ([6]; WT h-tau loading) was “significantly increased”. The “Miniature EPSC amplitude and frequency” value ([2]; 20 μM intra-terminal loading) was “neither amplitude nor frequency was affected”, the “EPSC amplitude 30 min after infusion (normalized to baseline)” value ([2]; EPSCs evoked at 0.1 Hz) was 85±12% and the “EPSC amplitude 30 min after infusion (normalized to baseline)” value ([2]; EPSCs evoked at 0.1 Hz, listed as h-tau) was 85%+12. The “EPSC amplitude remaining 30 min after infusion (normalized to baseline)” value ([2]; EPSCs evoked at 1 Hz) was 65±5%, the “EPSC amplitude remaining 30 min after infusion (normalized to baseline)” value ([2]; EPSCs evoked at 1 Hz, listed as h-tau) was 23±9% and the “MT assembly in in vitro tubulin polymerization assay” value ([3]; 10 μM) was “MT assembly”.

B1: del-MTBD: human tau deletion mutant lacking the MT-binding domain (amino acid 244 to 367) (protein)
chain: MAEPRQEFEVMEDHAGTYGLGDRKDQGGYTMHQDQEGDTDAGLKAEEAGIGDTPSLEDEAAGHVTQARMVSKSKDGTGSDDKKAKGADGKTKIATPRGAAPPGQKGQANATRIPAKTPPAPKTPPSSGEPPKSGDRSGYSSPGSPGTPGSRSRTPSLPTPPTREPKKVAVVRTPPKSPSSAKSRLNKKIETHKLTFRENAKAKTDHGAEIVYKSPVVSGDTSPRHLSNVSSTGSIDMVDSPQLATLADEVSASLAKQGL
In the case of B1, the “Effect on EPSC amplitude, loaded alone” value ([2]; 20 μM alone) is reported as “no effect” and the “MT assembly in in vitro tubulin polymerization assay” value ([3]; 10 μM, listed as Del-MTBD) is reported as “lacking tubulin polymerization capability”.
